This assay concerns HSV-1. Nature of the assay: HSV-1 infection of Vero 76 cells, viral DNA hybridization capture assay. The format is cell-based. To be noted: Human alphaherpesvirus 1; HSV-1 (MOI=0.001) in Vero 76 cells, 40–48 hours incubation, HSV DNA hybridization with chemiluminescence detection. The procedure: Vero 76 cells were maintained in MEM with Earle's salts, L-glutamine, 8% FBS (Hyclone, A-1111-L) and 100 units/mL Penicillin-100 μg/mL Streptomycin. For assay conditions, FBS was reduced to 2%. Cells are seeded into 96-well tissue culture plates at a density of 5×10^4 cells/well after being incubated for 45 min at 37° C. in the presence of HSV-1 or HSV-2 (MOI=0.001). Test compounds are added to the wells and the plates are incubated at 37° C. for 40–48 hours. Cell lysates are prepared as follows: media was removed and replaced with 150 μL/well 0.2 N NaOH with 1% Igepal CA 630 or NP-40. Plates were incubated up to 14 days at room temperature in a humidified chamber to prevent evaporation.
For the detection probe, a gel-purified, digoxigenin-labeled, […] PCR fragment of the HSV UL-15 sequence was utilized. PCR conditions included 0.5 μM primers, 180 μM dTTP, 20 μM dUTP-digoxigenin (Boehringer Mannheim 1558706), 200 μM each of dATP, dCTP, and dGTP, 1×PCR Buffer II (Perkin Elmer), 2.5 mM, MgCl2, 0.025 units/μL of AmpliTaq Gold polyerase (Perkin Elmer), and 5 ng a gel-purified HSV DNA per 100 μL Extension conditions were 10 min at 95° C., followed by 30 cycles of 95° C. for 1 min, 55° C. for 30 sec, and 72° C. for 2 min. The amplification was completed with a 10-min incubation at 72° C. Primers were selected to amplify a 728 bp probe spanning a section of the HSV1 UL15 open reading frame (nucleotides 249–977). Single-stranded transcripts were purified with Promega M13 Wizard kits. The final product was mixed 1:1 with a mixture of 6 M GuSCN, 100 mM EDTA and 200 μg/mL herring sperm DNA and stored at 4° C.
The capture DNA plasmid (HSV UL13 region in pUC) was linearized by cutting with Xba I, denatured for 15 min at 95° C. and diluted immediately into Reacti-Bind DNA Coating Solution (Pierce, 17250, diluted 1:1 with TE buffer, pH 8) at 1 ng/μL 75 μl/well were added to Corning (#3922 or 9690) white 96-well plates and incubated at room temperature for at least 4 hrs before washing twice with 300 μL/well 0.2×SSC/0.05% Tween-20 (SSC/T buffer). The plates were then incubated overnight at room temperature with 150 μL/well 0.2 N NaOH, 1% IGEPAL and 10 μg/mL herring sperm DNA.
Twenty-seven (27) μL of cell lysate was combined with 45 μL of hydridization solution (final concentration: 3M GuSCN, 50 mM EDTA, 100 μg/ml salmon sperm DNA, 5× Denhardt's solution, 0.25× APE, and 5 ng of the digoxigenin-labeled detection probe). APE is 1.5 M NH4-acetate, 0.15 M NH4H2phosphate, and 5 mM EDTA adjusted to pH 6.0. Mineral oil (50 μL) was added to prevent evaporation. The hybridization plates were incubated at 95° C. for 10 minutes to denature the DNA, then incubated at 42° C. overnight. The wells were washed 6× with 300 μL/well SSC/T buffer then incubated with 75 μL/well anti-digoxigenin-HRP-conjugated antibody (Boehringer Mannheim 1207733, 1:5000 in TE) for 30 min at room temperature. The wells were washed 6× with 300 μL/well with PBS/0.05% Tween-20 before 75 μL/well SuperSignal LBA substrate (Pierce) was added. The plates were incubated at room temperature for 30 minutes and chemiluminescence was measured in a Wallac Vietor reader.
The following results were obtained for HSV-1.

What is called IC50 is the concentration that inhibits the measured activity by half. Molecule `COCCOc1ccc(-c2nn3c(NC4CCCC4)nccc3c2-c2ccnc(NC3CCCC3)n2)cc1` [Example 27, N-Cyclopentyl-3-[2-(cyclopentylamino)pyrimidin-4-yl]-2-[4-(2-methoxyethoxy)phenyl]pyrazolo[1,5-c]pyrimidin-7-amine] had an IC50 of 1 µM.

In turn, `CCCOc1ccc(-c2nn3c(NC4CCCC4)nccc3c2-c2ccnc(NC3CCCC3)n2)cc1` [Example 28, N-Cyclopentyl-3-[2-(cyclopentylamino)pyrimidin-4-yl]-2-(4-propoxyphenyl)pyrazolo[1,5-c]pyrimidin-7-amine] showed an IC50 of 0.5 µM.

With `CC(C)(C)Nc1nccc2c(-c3ccnc(NC4CCCC4)n3)c(-c3ccc(F)cc3)nn12` [Example 29, N-(tert-Butyl)-3-[2-(cyclopentylamino)pyrimidin-4-yl]-2-(4-fluorophenyl)pyrazolo[1,5-c]pyrimidin-7-amine], the IC50 stood at 7 µM.

`Fc1ccc(-c2nn3c(N4CCCC4)nccc3c2-c2ccnc(NC3CCCC3)n2)cc1` [Example 30, N-Cyclopentyl-4-[2-(4-fluorophenyl)-7-pyrrolidin-1-ylpyrazolo[1,5-c]pyrimidin-3-yl]pyrimidin-2-amine]: half-maximal inhibition (IC50) required 2 µM.

Molecule `Fc1ccc(-c2nn3c(N4CCCCC4)nccc3c2-c2ccnc(NC3CCCC3)n2)cc1` [Example 31, N-Cyclopentyl-4-[2-(4-fluorophenyl)-7-piperidin-1-ylpyrazolo[1,5-c]pyrimidin-3-yl]pyrimidin-2-amine] gave an IC50 of 1 µM.

(Values after patent US7247626B2, “Pyrazolopyrimidine derivatives and pharmaceutical compositions containing them” (SmithKline Beecham Corporation, priority 2002, dated 2007).)
